biological target: WIL-FL (Homo sapiens, UniProt P01721); experiment: Unlabeled LC Protease Sensitivity Assay (proteinase K); assay type: biochemical; conditions: small molecule 10 μM, WIL-FL 5 μM, proteinase K 50 nM, 2 hours at 37° C.
Method in brief: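 WIL-FL light chain (5 μM) in PBS pH 7.4 + 0.02% Pluronic F-127 digested with proteinase K (50 nM) for 2 h at 37 °C with 10 μM compound (1% DMSO). Intact WIL-FL quantified by size-exclusion UPLC (A280). Fold protection = (A_compound−A_vehicle)/(A_no_protease−A_vehicle) from peak areas.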

Row | Protection (fold protection of LC from protease) | SMILES
1 | B (3 ≤ B < 0.6) | CCN(CC)c1ccc2c(C)c(CCOC(=O)NCc3cccc(-c4cncnc4)c3)c(=O)oc2c1 [Compound 156, 2-(7-(diethylamino)-4-methyl-2-oxo-2H-chromen-3-yl)ethyl (3-(pyrimidin-5-yl)benzyl)carbamate]
2 | B (3 ≤ B < 0.6) | CCN(CC)c1ccc2c(C)c(CCOC(=O)N3CCC(Cc4cccnc4)CC3)c(=O)oc2c1 [Compound 118, 2-(7-(diethylamino)-4-methyl-2-oxo-2H-chromen-3-yl)ethyl 4-(pyridin-3-ylmethyl)piperidine-1-carboxylate]
3 | B (3 ≤ B < 0.6) | CCN(CC)c1ccc2c(C)c(CCOC(=O)NCCc3cnc[nH]3)c(=O)oc2c1 [Compound 88, 2-(7-(diethylamino)-4-methyl-2-oxo-2H-chromen-3-yl)ethyl (2-(1H-imidazol-4-yl)ethyl)carbamate]
4 | C (C ≥ 0.6) | CCN(CC)c1ccc2c(C)c(CCOC(=O)NCc3cccc(-c4ncc[nH]4)c3)c(=O)oc2c1 [Compound 153, 2-(7-(diethylamino)-4-methyl-2-oxo-2H-chromen-3-yl)ethyl (3-(1H-imidazol-2-yl)benzyl)carbamate]
5 | B (3 ≤ B < 0.6) | CCN(CC)c1ccc2c(C)c(CCOC(=O)NCc3ccn[nH]3)c(=O)oc2c1 [Compound 92, 2-(7-(diethylamino)-4-methyl-2-oxo-2H-chromen-3-yl)ethyl ((1H-pyrazol-5-yl)methyl)carbamate]
6 | A (A < 0.3)) | CCN(CC)c1ccc2c(C)c(CCOC(=O)N3CCN(c4ncccn4)CC3)c(=O)oc2c1 [Compound 116, 2-(7-(diethylamino)-4-methyl-2-oxo-2H-chromen-3-yl)ethyl 4-(pyrimidin-2-yl)piperazine-1-carboxylate]
7 | A (A < 0.3)) | CCN(CC)c1ccc2c(C)c(CCOC(=O)NCCc3ccccn3)c(=O)oc2c1 [Compound 82, 2-(7-(diethylamino)-4-methyl-2-oxo-2H-chromen-3-yl)ethyl (2-(pyridin-2-yl)ethyl)carbamate]
8 | B (3 ≤ B < 0.6) | CCN(CC)c1ccc2c(C)c(CCOC(=O)NCc3ccncc3)c(=O)oc2c1 [Compound 86, 2-(7-(diethylamino)-4-methyl-2-oxo-2H-chromen-3-yl)ethyl (pyridin-4-ylmethyl)carbamate]
9 | A (A < 0.3)) | CCN(CC)c1ccc2c(C)c(CCOC(=O)NCc3ccc(=O)[nH]c3)c(=O)oc2c1 [Compound 138, 2-(7-(diethylamino)-4-methyl-2-oxo-2H-chromen-3-yl)ethyl ((6-oxo-1,6-dihydropyridin-3-yl)methyl)carbamate]
10 | B (3 ≤ B < 0.6) | CCN(CC)c1ccc2c(C)c(CCNC(=O)NCCc3cccnc3)c(=O)oc2c1 [Compound 99, 1-(2-(7-(diethylamino)-4-methyl-2-oxo-2H-chromen-3-yl)ethyl)-3-(2-(pyridin-3-yl)ethyl)urea]
11 | A (A < 0.3)) | CCN(CC)c1ccc2c(C)c(CCOC(=O)NCc3ccc(C(F)(F)F)nc3)c(=O)oc2c1 [Compound 101, 2-(7-(diethylamino)-4-methyl-2-oxo-2H-chromen-3-yl)ethyl ((6-(trifluoromethyl)pyridin-3-yl)methyl)carbamate]

Second part, the molecule before the results:

Row | SMILES | Protection (fold protection of LC from protease)
12 | CCN(CC)c1ccc2c(C)c(CCNC(=O)NCc3ccc(=O)[nH]c3)c(=O)oc2c1 [Compound 286, 1-(2-(7-(diethylamino)-4-methyl-2-oxo-2H-chromen-3-yl)ethyl)-3-((6-oxo-1,6-dihydropyridin-3-yl)methyl)urea] | A (A < 0.3))
13 | CCN(CC)c1ccc2c(C)c(CCOC(=O)NCc3cccc(-c4ccccc4O)c3)c(=O)oc2c1 [Compound 218, 2-(7-(diethylamino)-4-methyl-2-oxo-2H-chromen-3-yl)ethyl ((2′-hydroxy-[1,1′-biphenyl]-3-yl)methyl)carbamate] | C (C ≥ 0.6)
14 | CCN(CC)c1ccc2c(C)c(CCOC(=O)NCc3cccc(-c4cc[nH]n4)c3)c(=O)oc2c1 [Compound 159, 2-(7-(diethylamino)-4-methyl-2-oxo-2H-chromen-3-yl)ethyl (3-(1H-pyrazol-5-yl)benzyl)carbamate] | C (C ≥ 0.6)
15 | CCN(CC)c1ccc2c(C)c(CCNC(=O)NCc3cccc(OCC(=O)O)c3)c(=O)oc2c1 [Compound 311, 2-(3-((3-(2-(7-(diethylamino)-4-methyl-2-oxo-2H-chromen-3-yl)ethyl)ureido)methyl)phenoxy)acetic acid] | B (3 ≤ B < 0.6)
16 | CCN(c1ccc2c(C)cc(=O)oc2c1)C(C)C [Compound 274, 7-(ethyl(isopropyl)amino)-4-methyl-2H-chromen-2-one] | A (A < 0.3))
17 | C#CCN(CC#C)c1ccc2c(C)cc(=O)oc2c1 [Compound 248, 7-(di(prop-2-yn-1-yl)amino)-4-methyl-2H-chromen-2-one] | B (3 ≤ B < 0.6)
18 | C=C(C)CN(C)c1ccc2c(C)cc(=O)oc2c1 [Compound 254, 4-methyl-7-(methyl(2-methylallyl)amino)-2H-chromen-2-one] | A (A < 0.3))
19 | CC(C)CC1NC(=O)N(CC(=O)Nc2ccc(C(F)(F)F)cc2)C1=O (single isomer, unassigned) [Compound 23] | A (A < 0.3))
20 | CCN(CC)c1ccc2c(C)c(CCN3C(=O)NC4(CCN(c5ncnc6[nH]cnc56)C4)C3=O)c(=O)oc2c1 (stereo not shown) [Compound 197, 3-(2-(7-(diethylamino)-4-methyl-2-oxo-2H-chromen-3-yl)ethyl)-7-(9H-purin-6-yl)-1,3,7-triazaspiro[4.4]nonane-2,4-dione] | C (C ≥ 0.6)
21 | CCN(CC)c1ccc2c(C)c(CCN3C(=O)NC4(CCN(c5ncnc6c5cnn6C)CC4)C3=O)c(=O)oc2c1 [Compound 216, 3-(2-(7-(diethylamino)-4-methyl-2-oxo-2H-chromen-3-yl)ethyl)-8-(1-methyl-1H-pyrazolo[3,4-d]pyrimidin-4-yl)-1,3,8-triazaspiro[4.5]decane-2,4-dione] | C (C ≥ 0.6)
22 | C#CCN(CC1CC1)c1ccc2c(C)cc(=O)oc2c1 [Compound 262, 7-((cyclopropylmethyl)(prop-2-yn-1-yl)amino)-4-methyl-2H-chromen-2-one] | A (A < 0.3))
23 | CCN(CC)c1ccc2c(C)c(CN3C(=O)CNC3=O)c(=O)oc2c1 [Compound 129, 3-((7-(diethylamino)-4-methyl-2-oxo-2H-chromen-3-yl)methyl)imidazolidine-2,4-dione] | B (3 ≤ B < 0.6)
24 | C#CCN(CC=C)c1ccc2c(C)cc(=O)oc2c1 [Compound 259, 7-(allyl(prop-2-yn-1-yl)amino)-4-methyl-2H-chromen-2-one] | A (A < 0.3))
25 | CCN(CC)c1ccc2c(C)c(CCN3C(=O)NC4(CCN(c5ccc(C(F)(F)F)cn5)CC4)C3=O)c(=O)oc2c1 [Compound 187, 3-(2-(7-(diethylamino)-4-methyl-2-oxo-2H-chromen-3-yl)ethyl)-8-(5-(trifluoromethyl)pyridin-2-yl)-1,3,8-triazaspiro[4.5]decane-2,4-dione] | A (A < 0.3))
26 | CCN(CC)c1ccc2c(C)c(CCNC(=O)NCc3ccc4c(=O)[nH]ccc4c3)c(=O)oc2c1 [Compound 296, 1-(2-(7-(diethylamino)-4-methyl-2-oxo-2H-chromen-3-yl)ethyl)-3-((1-oxo-1,2-dihydroisoquinolin-6-yl)methyl)urea] | B (3 ≤ B < 0.6)
27 | C=CCNc1ccc2c(C)cc(=O)oc2c1 [Compound 240, 7-(allylamino)-4-methyl-2H-chromen-2-one] | A (A < 0.3))
28 | CCN(CC)c1ccc2c(C)c(CCOC(=O)NC)c(=O)oc2c1 [Compound 79, 2-(7-(diethylamino)-4-methyl-2-oxo-2H-chromen-3-yl)ethyl methylcarbamate] | A (A < 0.3))
29 | CCN(CC)c1ccc2c(C)c(CC(=O)NCCCc3ccccc3)c(=O)oc2c1 [Compound 56, 2-(7-(diethylamino)-4-methyl-2-oxo-2H-chromen-3-yl)-N-(3-phenylpropyl)acetamide] | A (A < 0.3))
30 | CCN(CC)c1ccc2c(C)c(CCOC(=O)NCc3cccc(-c4ccccn4)c3)c(=O)oc2c1 [Compound 154, 2-(7-(diethylamino)-4-methyl-2-oxo-2H-chromen-3-yl)ethyl (3-(pyridin-2-yl)benzyl)carbamate] | C (C ≥ 0.6)
31 | CCN(CC)c1ccc2c(C)c(CCOC(=O)NCc3nccc4ccccc34)c(=O)oc2c1 [Compound 139, 2-(7-(diethylamino)-4-methyl-2-oxo-2H-chromen-3-yl)ethyl (isoquinolin-1-ylmethyl)carbamate] | A (A < 0.3))
32 | Cc1cc(=O)oc2cc(OC(C)c3ccc(F)cc3)ccc12 (stereo not shown) [Compound 44, 7-(1-(4-fluorophenyl)ethoxy)-4-methyl-2H-chromen-2-one] | A (A < 0.3))
33 | CCN(CC)c1ccc2c(CCCOC(=O)NCc3cccc(CCC(=O)O)c3)cc(=O)oc2c1 [Compound 305, 3-(3-((((3-(7-(diethylamino)-2-oxo-2H-chromen-4-yl)propoxy)carbonyl)amino)methyl)phenyl)propanoic acid] | A (A < 0.3))
34 | CCN(CC)c1ccc2c(C)c(CCC(=O)O)c(=O)oc2c1 [Compound 62, 3-(7-(diethylamino)-4-methyl-2-oxo-2H-chromen-3-yl)propanoic acid] | A (A < 0.3))
